The values below come from patent US7691416B2, “Methods of treating vascular disease” (priority 2002, dated 2010).

The assay concerns intimal hyperplasia after balloon injury of the carotid artery. The experiment in a line: Balloon injury model of the carotid artery. In kind it is in vivo, rat. The following applies: CO 250 ppm for one hour prior to balloon injury; 14 days after injury; n=8-10. The text has this:
Animals. Male (250-350 g) Brown Norway rats (RT1^n) were used as aortic graft donors and male (250-350 g) Lewis rats (RT11) as recipients. Dawley (400-450 g) rats were used in the balloon injury model. Adult male C57BL/6, C57/S129, p21^−/− and p53^−/− null mice were purchased from Jackson Laboratory (Bar Harbor, Me.). mkk3^(−/−) null mice were generated as described Lu et al. (EMBO. 18:1845-1857 (1999)). The inos^−/− and enos^−/− mice were bred at the University of Pittsburgh. Aortic transplant model. Aortic transplantation was performed as described in Shimizu et al. (Nat. Med. 7:738-741 (2001)). Briefly, 3 to 4 cm of descending aorta was harvested from the donor and implanted between the renal arteries and the aortic bifurcation of the recipient. Both edges of the native abdominal aorta were ligated. Balloon injury model. Balloon angioplasty was carried out as described in Murakami et al. (Atherosclerosis 157:361-368 (2001)). […] [^3H]thymidine incorporation was measured by scintillation spectroscopy and presented as mean counts/min/well. […] Areas from eight to ten captured images were calculated using digital imaging software as number of pixels corresponding to those areas. Twenty-four to forty-eight sections from each group were statistically analyzed with SPSS software version 10. […]

For the compound `[C-]#[O+]` [CO, carbon monoxide], the “Intimal hyperplasia, suppression compared to control animals exposed to air” value was determined as 74±8%.
